Results: article PMC6423518 (Bioorganic & medicinal chemistry letters, 2018)
Entries after “also recorded” stand apart in the source; their conditions may differ.

Tested on: MDA-MB-231 cells
Test: Acridine orange/ethidium bromide
Type: cell-based, human
Conditions: fluorescence microscopy

| SMILES | Cell death / apoptosis by AO/EB staining |
| --- | --- |
| COc1cc(/C=C/C(=O)c2c3[nH]c4ccccc4c3cc[n+]2Cc2ccccc2)cc(OC)c1OC.[Br-] [Compound 13g] | induces apoptosis; also recorded: markedly induced cell death |
| COc1cccc2c1C(=O)c1c(O)c3c(c(O)c1C2=O)C[C@@](O)(C(=O)CO)C[C@@H]3O[C@H]1C[C@H](N)[C@H](O)[C@H](C)O1 [Doxorubicin, reference compound] | morphological changes characteristic of apoptotic cells formation |
